Columns and labels:
MGL = target: T1, MGL (Rattus norvegicus, UniProt Q8R431); test: 2-AG Accumulation Assay in rat brain homogenate; assay type: biochemical; conditions: percent of vehicle; for activity at 1 µM: compound @1 µM, read-out: Rat Brain 2AG % VehCntrl (%) @1 µM; for activity at 10 µM: compound @10 µM, read-out: Rat Brain 2AG % VehCntrl (%) @10 µM
T1 construct: one g rat brain was homogenized using a Polytron homogenizer; from tissue; host or cells: rat brain homogenate
T1 sequence (Q8R431 1-303): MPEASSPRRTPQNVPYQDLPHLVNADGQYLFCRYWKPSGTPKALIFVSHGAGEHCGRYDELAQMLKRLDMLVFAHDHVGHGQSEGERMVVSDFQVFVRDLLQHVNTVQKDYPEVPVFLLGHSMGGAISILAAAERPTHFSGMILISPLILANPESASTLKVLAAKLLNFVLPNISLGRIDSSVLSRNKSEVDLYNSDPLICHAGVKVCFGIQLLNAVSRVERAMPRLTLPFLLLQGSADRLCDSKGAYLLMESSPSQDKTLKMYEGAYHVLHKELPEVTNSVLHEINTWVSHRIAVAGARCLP

[1] = target: T2, mutant MGL (mut-MGLL 11-313 L179S L186S) (Homo sapiens, UniProt Q99685, L169S/L176S); test: MGL Enzyme Activity Assay, purified mutant MGL, 4MU-B substrate; assay type: biochemical; conditions: mutant MGL 5 nM, 4MU-B 10 μM, 37° C.; read-out: MGL mutant inh IC50
T2 construct: purified mutant MGL (mut-MGLL 11-313 L179S L186S)
T2 sequence (Q99685 1-303 L169S/L176S): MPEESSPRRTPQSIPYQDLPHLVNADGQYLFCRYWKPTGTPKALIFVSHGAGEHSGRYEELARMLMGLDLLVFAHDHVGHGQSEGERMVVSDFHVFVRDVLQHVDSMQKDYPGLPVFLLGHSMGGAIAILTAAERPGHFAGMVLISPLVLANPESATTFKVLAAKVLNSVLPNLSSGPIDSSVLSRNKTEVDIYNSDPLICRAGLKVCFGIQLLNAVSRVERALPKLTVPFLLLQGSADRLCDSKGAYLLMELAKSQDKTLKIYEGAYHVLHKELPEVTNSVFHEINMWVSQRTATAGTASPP
Description: All rate-based assays were performed in black 384-well polypropylene PCR microplates (Abgene) in a total volume of 30 μL. Substrate 4-methylumbelliferyl butyrate (4MU-B; Sigma) and either purified mutant MGL (mut-MGLL 11-313 L179S L186S) or purified wild type MGL (wt-MGLL 6H-11-313) were diluted separately into 20 mM PIPES buffer (pH=7.0), containing 150 mM NaCl and 0.001% Tween 20. Compounds of Formula (I), including Formulas I(a), I(b), and I(c), were pre-dispensed (50 nL) into the assay plate using a Cartesian Hummingbird prior to adding 4MU-B (25 μL of 1.2× solution to a final concentration of 10 μM) followed by enzyme (5 μL of a 6× solution to a final concentration of 5 nM) to initiate the reaction. Final compound concentrations ranged from 17 to 0.0003 μM. The fluorescence change due to 4MU-B cleavage was monitored with excitation and emission wavelengths of 335 and 440 nm, respectively, and a bandwidth of 10 nm (Safire^2, Tecan) at 37° C. for 5 min.
The IC50 values for the following compounds were determined using Microsoft Office Excel from a fit of the equation to the concentration-response plot of the fractional activity as a function of inhibitor concentration.

mutant MGL = target: T3, mutant MGL (Homo sapiens, UniProt Q99685, L169S/L176S); test: MGL ThermoFluor Assay - Mutant; assay type: binding; conditions: 0.07 mg/ml mutant MGL, 100 μM ANS, pH 7.0
T3 construct: purified mutant MGL (mut-MGLL 11-313 L179S L186S)
T3 sequence (Q99685 1-303 L169S/L176S): T2 sequence (Q99685 1-303 L169S/L176S)
Description: The ThermoFluor (TF) assay is a 384-well plate-based binding assay that measures thermal stability of proteins^1,2. The experiments were carried out using instruments available from Johnson & Johnson Pharmaceutical Research & Development, LLC. TF dye used in all experiments was 1,8-ANS (Invitrogen: A-47). Final TF assay conditions used for MGL studies were 0.07 mg/ml of mutant MGL, 100 μM ANS, 200 mM NaCl, 0.001% Tween-20 in 50 mM PIPES (pH=7.0).
Screening compound plates contained 100% DMSO compound solutions at a single concentration. […] Columns 12 and 24 were used as DMSO reference and contained no compound. […] Following compound dispension, protein and dye solutions were added to achieve the final assay volume of 3 μL.
Bar-coded assay plates were robotically loaded onto a thermostatically controlled PCR-type thermal block and then heated from 40 to 90° C. degrees at a ramp-rate of 1° C./min for all experiments. Fluorescence was measured by continuous illumination with UV light (Hamamatsu LC6), supplied via fiber optics and filtered through a band-pass filter (380-400 nm; >60D cutoff). Fluorescence emission of the entire 384-well plate was detected by measuring light intensity using a CCD camera (Sensys, Roper Scientific) filtered to detect 500±25 nm, resulting in simultaneous and independent readings of all 384 wells. A single image with 20-sec exposure time was collected at each temperature, and the sum of the pixel intensity in a given area of the assay plate was recorded vs temperature and fit to standard equations to yield the Tm^1. • 1.
The Kd values for certain compounds of Formula (I) were determined from a fit of the equation to the concentration-response plot of the fractional activity as a function of […]. For some experiments, quantitative NMR spectroscopy (qNMR) was used to measure concentration of the initial 100% DMSO compound solutions and, using the same fitting method, qKd values were determined.

activity at 1 µM (MGL) | IC50 [1] | Kd (mutant MGL) | activity at 10 µM (MGL) | Structure (SMILES)
271% | 6 nM | 33.3 nM | – | O=C(NC1CN(C2CN(C(=O)c3ccc4c(ccn4S(=O)(=O)c4ccccc4)c3)C2)C1)c1nccs1 [Cpd 3, N-(1′-{[1-(Phenylsulfonyl)-1H-indol-5-yl]carbonyl}-1,3′-biazetidin-3-yl)-1,3-thiazole-2-carboxamide]
127% | 12 nM | 128 nM | – | O=C(NC1CN(C2CN(C(=O)c3cc4c(C(F)(F)F)cccc4s3)C2)C1)c1nccs1 [Cpd 8, N-(1′-{[4-(Trifluoromethyl)-1-benzothiophen-2-yl]carbonyl}-1,3′-biazetidin-3-yl)-1,3-thiazole-2-carboxamide]
– | 15 nM | 44 nM | 220% | O=C(NC1CN(C2CN(C(=O)c3ccc4c(ccn4-c4ccc(F)cc4)c3)C2)C1)c1cscn1 [Cpd 11, N-(1′-{[1-(4-Fluorophenyl)-1H-indol-5-yl]carbonyl}-1,3′-biazetidin-3-yl)-1,3-thiazole-4-carboxamide]
218% | 59 nM | 215 nM | – | CS(=O)(=O)c1cccc(-c2ccc(C(=O)N3CC(N4CC(NC(=O)c5nccs5)C4)C3)cc2)c1 [Cpd 18, N-(1′-{[3′-(Methylsulfonyl)biphenyl-4-yl]carbonyl}-1,3′-biazetidin-3-yl)-1,3-thiazole-2-carboxamide]
– | 4750 nM | 2500 nM | – | O=C(NC1CN(C2CN(C(=O)c3nc4cc(C(F)(F)F)ccc4s3)C2)C1)c1nccs1 [Cpd 47, N-(1′-{[5-(Trifluoromethyl)-1,3-benzothiazol-2-yl]carbonyl}-1,3′-biazetidin-3-yl)-1,3-thiazole-2-carboxamide]
– | 8 nM | 50 nM | 400% | O=C(c1ccc2c(ccn2S(=O)(=O)c2ccccc2)c1)N1CC(N2CC(N3Cc4ccccc4C3=O)C2)C1 [Cpd 71, 2-(1′-{[1-(Phenylsulfonyl)-1H-indol-5-yl]carbonyl}-1,3′-biazetidin-3-yl)-2,3-dihydro-1H-isoindol-1-one]
– | 15 nM | 7 nM | – | O=C(c1sc2cc(Br)ccc2c1Cl)N1CC(N2CC(N3Cc4ccccc4C3=O)C2)C1 [Cpd 75, 2-{1′-[(6-Bromo-3-chloro-1-benzothiophen-2-yl)carbonyl]-1,3′-biazetidin-3-yl}-2,3-dihydro-1H-isoindol-1-one]
– | 17 nM | 40 nM | – | O=C(c1ccc2nc(-c3cccc(C(F)(F)F)c3)oc2c1)N1CC(N2CC(N3Cc4ccccc4C3=O)C2)C1 [Cpd 78, 2-[1′-({2-[3-(Trifluoromethyl)phenyl]-1,3-benzoxazol-6-yl}carbonyl)-1,3′-biazetidin-3-yl]-2,3-dihydro-1H-isoindol-1-one]
166% | 19 nM | 192 nM | – | CS(=O)(=O)c1cccc(-c2ccc(C(=O)N3CC(N4CC(N5Cc6ccccc6C5=O)C4)C3)cc2)c1 [Cpd 80, 2-(1′-{[3′-(Methylsulfonyl)biphenyl-4-yl]carbonyl}-1,3′-biazetidin-3-yl)-2,3-dihydro-1H-isoindol-1-one]
192% | 19 nM | 16 nM | 409% | O=C(c1cc2ccc(C(F)(F)F)cc2s1)N1CC(N2CC(N3Cc4ccccc4C3=O)C2)C1 [Cpd 81, 2-(1′-{[6-(Trifluoromethyl)-1-benzothiophen-2-yl]carbonyl}-1,3′-biazetidin-3-yl)-2,3-dihydro-1H-isoindol-1-one]
152% | 31 nM | 60 nM | 435% | O=C(c1ccc2nc(-c3ccccc3)oc2c1)N1CC(N2CC(N3Cc4ccccc4C3=O)C2)C1 [Cpd 84, 2-{1′-[(2-Phenyl-1,3-benzoxazol-6-yl)carbonyl]-1,3′-biazetidin-3-yl}-2,3-dihydro-1H-isoindol-1-one]
– | 36 nM | 25 nM | 693% | O=C(c1ccc2c(ccn2-c2ccccc2)c1)N1CC(N2CC(N3Cc4ccccc4C3=O)C2)C1 [Cpd 85, 2-{1′-[(1-Phenyl-1H-indol-5-yl)carbonyl]-1,3′-biazetidin-3-yl}-2,3-dihydro-1H-isoindol-1-one]
– | 50 nM | 40 nM | 250% | O=C(c1cc2ccc(Br)cc2s1)N1CC(N2CC(N3Cc4ccccc4C3=O)C2)C1 [Cpd 87, 2-{1′-[(6-Bromo-1-benzothiophen-2-yl)carbonyl]-1,3′-biazetidin-3-yl}-2,3-dihydro-1H-isoindol-1-one]
– | 242 nM | 100 nM | – | O=C(c1ccc(-c2ccccc2)cc1)N1CC(N2CC(N3Cc4ccccc4C3=O)C2)C1 [Cpd 92, 2-[1′-(Biphenyl-4-ylcarbonyl)-1,3′-biazetidin-3-yl]-2,3-dihydro-1H-isoindol-1-one]
– | 360 nM | 76.9 nM | – | O=C(c1cc2cc(Br)ccc2s1)N1CC(N2CC(N3Cc4ccccc4C3=O)C2)C1 [Cpd 93, 2-{1′-[(5-Bromo-1-benzothiophen-2-yl)carbonyl]-1,3′-biazetidin-3-yl}-2,3-dihydro-1H-isoindol-1-one]
– | 412 nM | 91 nM | – | O=C(c1ccc(Cc2ccccc2)cc1)N1CC(N2CC(N3Cc4ccccc4C3=O)C2)C1 [Cpd 94, 2-{1′-[(4-Benzylphenyl)carbonyl]-1,3′-biazetidin-3-yl}-2,3-dihydro-1H-isoindol-1-one]
208% | < 5 nM | 47 nM | – | O=C(c1sc2cc(F)ccc2c1Cl)N1CC(N2CC(N3Cc4ccccc4C3=O)C2)C1 [Cpd 100, 2-{1′-[(3-Chloro-6-fluoro-1-benzothiophen-2-yl)carbonyl]-1,3′-biazetidin-3-yl}-2,3-dihydro-1H-isoindol-1-one]

— US8759333B2, “Di-azetidinyl diamide as monoacylglycerol lipase inhibitors” (Janssen Pharmaceutica, NV, priority 2010, dated 2014)
